Entries after “also recorded” stand apart in the source; their conditions may differ.
System: men with clinical BPH
Assay: four-year, double-blind placebo-controlled study of finasteride in men with clinical BPH (acute urinary retention and BPH-related surgery outcomes)
Format: in vivo, human
Conditions: for risk of AUR or BPH-related surgery / finasteride-related reduction of risk (AUR or surgery): 4 years; for finasteride-related reduction of risk (AUR or surgery): versus placebo
Description: A total of 3040 men with clinical BPH diagnosed on the basis of moderate-to-severe symptoms, a decreased peak urinary flow rate (less than 15 mL/sec with a voided volume of 150 mL or more) and an enlarged prostate gland by digital rectal examination (DRE) were enrolled in a four-year study comparing finasteride with placebo. Men receiving alpha blocking agents or antiandrogens, and men with a history of chronic prostatitis, recurrent urinary tract infections, prostate or bladder cancer or surgery, or a serum PSA over 10 ng/mL were excluded. Men with serum PSA concentrations between 4.0 and 9.9 ng/mL had to have a negative prostate biopsy prior to enrollment.
After a one-month single-blind placebo lead-in, men were randomly assigned to receive placebo or 5 mg of finasteride (17β-(N-tert-butylcarbamoyl)-3-oxo-4-aza-5α-androst-1-en-3-one) daily in a four year, double-blind placebo-controlled study. BPH-related outcomes including symptoms, bothersomeness, adverse events and urinary flow rates, were assessed every 4 months. Serum PSA was measured every 4 months in the first year and then every 8 months at a central laboratory. Physical examination and routine hematological and serum chemistry tests were performed yearly. Magnetic resonance imaging (MRI) was performed at baseline and subsequently yearly in a subset of 10% of patients. All MRI images were read by a central radiologist blinded to treatment allocation and time of imaging.
Acute urinary retention (AUR) and surgery for BPH were predefined secondary end-points. The endpoint committee, blinded to treatment group, reviewed all study-related documents related to episodes of acute urinary retention, and all prostate surgeries for BPH, excluding surgery for prostate cancer. The endpoint committee classified episodes of AUR as spontaneous versus precipitated (when contributing factors such as urinary tract infection, surgery anesthesia, ingestion of alpha sympathomimetic drugs or anticholinergics were identified).
Complete data on outcomes, including four-year follow-up information for men who had discontinued treatment, were available for 92% of the men randomized. In the other 8%, complete information was available until discontinuation of the medication or up to the 6-month follow-up assessment after discontinuation.
The effect of baseline serum PSA on the risk of BPH-related outcomes (developing AUR and need for BPH-related surgery), were assessed by dividing patients into tertiles of baseline serum PSA, and calculating the risk of developing an outcome by time-to-first event analysis as well as Fisher's exact test for cumulative incidence. The finasteride-related reduction in risk over 4 years was calculated using log rank analyses. All statistical tests were two-sided and a p-value of <0.05 accepted as significant.
The measurement characteristics of baseline in prediction of BPH-related outcomes were evaluated using receiver operating characteristic (ROC) curves. The area under the ROC curve (AUC) for a given population is given by the probability that a randomly chosen individual in the affected population has a higher value of the index (in this case PSA) than a randomly chosen individual in the non-affected population. The AUC's were computed using the method of Hanley and McNeil. Differences between AUC's in the finasteride and placebo group were tested using normal statistics with standard deviations computed by the same method.

[1] = 5 mg daily, four years, all patients
[2] = lowest tertile of serum PSA (0.0-1.3 ng/mL)
[3] = second tertile (serum PSA 1.4-3.2 ng/mL)

## CC(C)(C)NC(=O)[C@H]1CC[C@H]2[C@@H]3CC[C@H]4NC(=O)C=C[C@]4(C)[C@H]3CC[C@]12C [finasteride, 17β-(N-tert-butylcarbamoyl)-3-oxo-4-aza-5α-androst-1-en-3-one]
[1]
  incidence of BPH-related surgery: 5%
  incidence of precipitated AUR: 2%
  incidence of spontaneous AUR: 1%
5 mg finasteride daily, four years, all patients
  overall incidence of acute urinary retention: 4%
All subgroups examined
  decrease of the risk of developing a BPH-related outcome: approximately half
finasteride-treated patients, four years, FIG. 1
  increase of cumulative incidence of spontaneous AUR with increasing baseline serum PSA: nearly absent; also recorded: the risk remains unchanged over the entire serum PSA spectrum
finasteride-treated patients, four years, FIG. 2
  increase of cumulative incidence of all AUR (spontaneous and precipitated combined) with increasing baseline serum PSA: nearly absent
finasteride-treated patients, four years, FIG. 3
  increase of cumulative incidence of BPH-related surgery across baseline PSA values: increases only in finasteride-treated patients in men with a baseline PSA above 5.0 ng/mL
Highest tertile of baseline serum PSA
  risk of AUR or BPH-related surgery: 8.3%
Lowest tertile of baseline serum PSA
  risk of AUR or BPH-related surgery: 4.4%
[2]
  4-year relative risk for finasteride versus placebo-treated patients: 0.57
  benefit of finasteride over placebo in the first two years (risk of AUR or surgery): minimal; also recorded: no apparent benefit
  finasteride-related reduction of risk (AUR or surgery): 43%
[3]
  4-year relative risk for finasteride versus placebo-treated patients: 0.54
  finasteride-related reduction of risk (AUR or surgery): 46%
Third tertile of serum PSA (3.3-12 ng/mL)
  4-year relative risk for finasteride versus placebo treated patients: 0.40
third/highest tertile of serum PSA (3.3-12 ng/mL)
  finasteride-related reduction of risk (AUR or surgery): 60%

Source: patent US20030069264A1, “METHOD OF DETERMINING AND REDUCING THE RISK OF BPH-RELATED UROLOGIC EVENTS” (priority 1998, published 2003)
